Measured values taken from patent US20210330650A1, “SPIROCHROMANE DERIVATIVES” (RICHTER GEDEON NYRT., priority 2018, published 2021).

How the values were obtained:
human α7 nAchR = target: T1, human α7 nAchR (Homo sapiens, UniProt P36544); experiment: Human α7 nicotinic acetylcholine receptor [Ca2+]i assay (Ca2+ fluorometry, PAM concentration-response); type: cell-based; details: Flp-In 293 cells expressing human α7 nAchR and human RIC-3; in presence of saturating agonist (mostly PNU-282987, 1 μM)
T1 construct: expressed in transfected cells
Description: Human α7 Nicotinic Acetylcholine Receptor [Ca2+]i Assay
Cells: Flp-In 293 cells stably expressing human α7 nAchR and human RIC-3 (α7 cells, generated in house.)
Materials: 96-well plates coated with PDL (Falcon), culture medium, assay buffer, DMSO, FLIPR Calcium 5 kit (Molecular Devices), probenecid, agonist and PAM test compounds.
Brief Description of the Method (Ca^2+ Fluorometry)
α7 cells stably expressing human α7 nAchR were cultured in the medium detailed above, and were split twice a week. For the fluorometric measurements of cytosolic Ca^2+ ion concentration ([Ca^2+]i) cells were seeded in 96-well microplates at a density of 60000 cells/well and maintained overnight in a tissue culture incubator at 37° C. under an atmosphere of 95% air/5% CO2. The plating medium was identical with the culture medium. 50 μl of the growth medium was aspirated with a cell washer (BioTek Elx405UCVWS). Then 50 μl/well Calcium 5 kit diluted 2-fold in assay buffer was added manually using an 8-channel pipette. After an incubation period (20 minutes, 37° C.) 50 μl/well assay buffer containing vehicle (DMSO, 4% added) or reference α7 PAMs (4× of the final concentration) were added manually and the cells were incubated for an additional 10 minutes at 37° C. Baseline and agonist-evoked [Ca^2+]i-changes were monitored with FlexStation II (Molecular Devices, Sunnyvale, Calif.), a plate reader fluorometer with integrated 8-channel fluid addition capability. Fluorescence measurements were carried out at 37° C. The dye was excited at 485 nm, emission was sampled at 525 nm at 1.4-s intervals. Baseline was recorded for 20 seconds followed by agonist stimulation. 50 μl 4× concentrated agonist solution was added to the cells using the pipettor of FlexStation II and fluorescence was monitored for an additional 40 seconds. Final DMSO concentration was 1% for all treatments. To achieve this, a series of DMSO stock solutions were prepared from all test compounds. These stocks were stored under 0° C. and were further diluted in assay buffer to obtain the desired final concentration immediately before the measurement. Agonist and PAM concentration-response studies were conducted in the presence of saturating concentrations of PAMs (mostly PNU-120596, 5 μM) and agonists (mostly PNU-282987, 1 μM), respectively. Results were expressed as ΔF/F values using SoftMax Pro software (Molecular Devices), where F was the resting fluorescence preceding agonist application and ΔF was the increase in fluorescence at a given time (ΔF=maximum fluorescence intensity values after stimulation minus average fluorescence intensity values before stimulation). In all experiments, all treatments were measured in multiple wells in parallel, and the mean ΔF/F values were used for analysis.

Male NMRI mice = experiment: Place recognition test (Y-maze), reversal of scopolamine-induced amnesia; type: in vivo; details: scopolamine 1 mg/kg i.p.
Description: In Vivo Pharmacology (Place Recognition Test)
Animals: Male NMRI mice (Toxicoop, Hungary)
Substances: Scopolamine was dissolved in saline and administered at 1 mg/kg dose i.p. Test compounds were administered 30 minutes before the acquisition trial (T1) and scopolamine after the acquisition trial at a volume of 0.1 ml/10 g.
Procedure: The task was carried out in a transparent plexiglass Y-maze (each arm has a length of 40 cm, an inner width of 11 cm and a height of 30 cm). Numerous visual cues were placed around the arms and were kept constant during the experiment. The test consisted of two trials (T1 and T2) separated by an intertrial interval of 30 minutes. Mice were placed in the starting arm of the maze at the beginning of each trial. In T1, one of the symmetric arms of the maze was closed (it will be novel in T2) and the animals were allowed to explore the maze for 5 minutes (acquisition phase). In T2, mice had free access to all three arms for 2 minutes (retrieval phase). The time spent with exploration in the novel and familiar arms during T2 was measured. Differences between the exploration times spent in the familiar vs. novel arms of the maze for each group were evaluated by MANOVA, followed by Duncan post hoc test.

T1 sequence (P36544 23-502): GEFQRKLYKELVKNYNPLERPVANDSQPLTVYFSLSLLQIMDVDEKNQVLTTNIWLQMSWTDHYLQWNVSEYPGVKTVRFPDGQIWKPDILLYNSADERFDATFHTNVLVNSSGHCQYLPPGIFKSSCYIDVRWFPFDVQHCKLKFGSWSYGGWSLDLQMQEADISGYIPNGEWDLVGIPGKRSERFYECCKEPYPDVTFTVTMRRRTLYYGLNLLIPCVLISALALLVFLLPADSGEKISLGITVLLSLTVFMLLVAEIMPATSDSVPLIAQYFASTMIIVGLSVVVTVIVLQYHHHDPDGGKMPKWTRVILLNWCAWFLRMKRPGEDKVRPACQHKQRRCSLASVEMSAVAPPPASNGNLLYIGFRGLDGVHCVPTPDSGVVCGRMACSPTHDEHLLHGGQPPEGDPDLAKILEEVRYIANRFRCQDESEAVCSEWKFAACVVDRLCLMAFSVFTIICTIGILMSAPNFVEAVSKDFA

For `Cn1ccc2cc(CNC(=O)N3CCC4(CC(=O)c5cc(Cl)ccc5O4)C3)ccc21` (single isomer, unassigned) [Example 5b], the EC50 (human α7 nAchR) was 400 nM.

For `COc1ccc2c(c1)C(=O)CC1(CN(C(=O)NCc3ccc4c(c3)c(Cl)cn4C)C1)O2` [Example 25], the EC50 (human α7 nAchR) was 230 nM.

For `Cc1cc2cc(CNC(=O)N3CC4(CC(=O)c5cc(F)cc(F)c5O4)C3)ccc2[nH]1` [Example 41, 6′,8′-difluoro-N-[(2-methyl-1H-indol-5-yl)methyl]-4′-oxo-3′,4′-dihydrospiro[azetidine-3,2′-[1]benzopyran]-1-carboxamide], the EC50 (human α7 nAchR) was 60 nM, the “reversal of the scopolamine-induced amnesia in the place recognition assay (exploration time novel vs. familiar arm, significance)” value (Male NMRI mice; 1 mg/kg i.p.) was “+ (^+p < 0.05)” and the “reversal of the scopolamine-induced amnesia in the place recognition assay (exploration time novel vs. familiar arm, significance)” value (Male NMRI mice; 3 mg/kg i.p.) was “+ (^+p < 0.05)”.

Compound `Cc1cc2cc(CNC(=O)N3CC4(CC(=O)c5ccc(C(F)(F)F)cc5O4)C3)cnc2n1C` [Example 65] has an EC50 (human α7 nAchR) of 750 nM.

Compound `Cn1ccc2cc(CNC(=O)N3CC4(CC(=O)c5cc(Cl)cc(Cl)c5O4)C3)cnc21` [Example 58] has an EC50 (human α7 nAchR) of 470 nM.

`Cn1ccc2cc(CNC(=O)N3CC4(CC(=O)c5cc(C(F)(F)F)ccc5O4)C3)ccc21` [Example 50] gave an EC50 (human α7 nAchR) of 150 nM.

For `Cn1ccc2cc(CNC(=O)N3CCC4(CC(=O)c5cc(Cl)ccc5O4)C3)ccc21` (single isomer, unassigned) [Example 5a], the EC50 (human α7 nAchR) was 430 nM.

For `Cn1ccc2cc(CNC(=O)N3CCC4(CCc5cc(Cl)ccc5O4)CC3)ccc21` [Example 10, 6-chloro-N-[(1-methyl-1H-indol-5-yl)methyl]-3,4-dihydrospiro[1-benzopyran-2,4′-piperidine]-1′-carboxamide], the EC50 (human α7 nAchR) was 100 nM.

Compound `CN1CCCc2cc(CNC(=O)N3CC4(CC(=O)c5ccc(F)cc5O4)C3)ccc21` [Example 71, 7′-Fluoro-N-[(1-methyl-1,2,3,4-tetrahydroquinolin-6-yl)methyl]-4′-oxo-3′,4′-dihydrospiro[azetidine-3,2′-[1]benzopyran]-1-carboxamide] has an EC50 (human α7 nAchR) of 2300 nM.

For `Cn1cc(Cl)c2cc(CNC(=O)N3CC4(CC(=O)c5ccccc5O4)C3)ccc21` [Example 37], the EC50 (human α7 nAchR) was 130 nM.

Compound `O=C1CC2(CN(C(=O)NCc3ccc4[nH]c(C(F)F)cc4c3)C2)Oc2cc(F)ccc21` [Example 69, N-{[2-(difluoromethyl)-1H-indol-5-yl]methyl}-7′-fluoro-4′-oxo-3′,4′-dihydrospiro[azetidine-3,2′-[1]benzopyran]-1-carboxamide] has an EC50 (human α7 nAchR) of 120 nM.

For `O=C1CC2(CN(C(=O)NCc3ccc4[nH]c(Cl)cc4c3)C2)Oc2cc(Cl)ccc21` [Example 43, 7′-chloro-N-[(2-chloro-1H-indol-5-yl)methyl]-4′-oxo-3′,4′-dihydrospiro[azetidine-3,2′-[1]benzopyran]-1-carboxamide], the EC50 (human α7 nAchR) was 360 nM, the “reversal of the scopolamine-induced amnesia in the place recognition assay (exploration time novel vs. familiar arm, significance)” value (Male NMRI mice; 1 mg/kg i.p.) was “+ (^+p < 0.05)” and the “reversal of the scopolamine-induced amnesia in the place recognition assay (exploration time novel vs. familiar arm, significance)” value (Male NMRI mice; 3 mg/kg i.p.) was “+++ (^+++p < 0.001)”. For the same compound, the “reversal of the scopolamine-induced amnesia in the place recognition assay (exploration time novel vs. familiar arm, significance)” value (Male NMRI mice; 10 mg/kg i.p.) was “+++ (^+++p < 0.001)”.

For `Cn1ccc2cc(CNC(=O)N3CC4(CC(=O)c5ccc(F)cc5O4)C3)ccc21` [Example 6, 7′-fluoro-N-[(1-methyl-1H-indol-5-yl)methyl]-4′-oxo-3′,4′-dihydrospiro[azetidine-3,2′-[1]benzopyran]-1-carboxamide], the EC50 (human α7 nAchR) was 190 nM, the “reversal of the scopolamine-induced amnesia in the place recognition assay (exploration time novel vs. familiar arm, significance)” value (Male NMRI mice; 1 mg/kg i.p.) was “+ (^+p < 0.05)” and the “reversal of the scopolamine-induced amnesia in the place recognition assay (exploration time novel vs. familiar arm, significance)” value (Male NMRI mice; 3 mg/kg i.p.) was “++ (^++p < 0.01)”. For the same compound, the “reversal of the scopolamine-induced amnesia in the place recognition assay (exploration time novel vs. familiar arm, significance)” value (Male NMRI mice; 10 mg/kg i.p.) was “+++ (^+++p < 0.001)”.

`Cn1cc(Br)c2cc(CNC(=O)N3CC4(CC(=O)c5cc(F)ccc5O4)C3)cnc21` [Example 53] gave an EC50 (human α7 nAchR) of 850 nM.

With `Cn1ccc2cc(CNC(=O)N3CC4(CC(=O)c5ccccc5O4)C3)ccc21` [Example 7, N-[(1-methyl-1H-indol-5-yl)methyl]-4′-oxo-3′,4′-dihydrospiro[azetidine-3,2′-[1]benzopyran]-1-carboxamide] the EC50 (human α7 nAchR) was 230 nM, the “reversal of the scopolamine-induced amnesia in the place recognition assay (exploration time novel vs. familiar arm, significance)” value (Male NMRI mice; 1 mg/kg i.p.) was “+++ (^+++p < 0.001)” and the “reversal of the scopolamine-induced amnesia in the place recognition assay (exploration time novel vs. familiar arm, significance)” value (Male NMRI mice; 3 mg/kg i.p.) was “+++ (^+++p < 0.001)”. The “reversal of the scopolamine-induced amnesia in the place recognition assay (exploration time novel vs. familiar arm, significance)” value (Male NMRI mice; 10 mg/kg i.p.) was “+++ (^+++p < 0.001)”.

In the case of `Cn1cc(F)c2cc(CNC(=O)N3CC4(CC(=O)c5cc(F)ccc5O4)C3)ccc21` [Example 38], the EC50 (human α7 nAchR) is reported as 220 nM.

Work on `Cn1ccc2cc(CNC(=O)N3CC4(CC(=O)c5cc(Cl)ccc5O4)C3)ccc21` [Example 3, 6′-chloro-N-[(1-methyl-1H-indol-5-yl)methyl]-4′-oxo-3′,4′-dihydrospiro[azetidine-3,2′-[1]benzopyran]-1-carboxamide] yielded an EC50 (human α7 nAchR) of 120 nM.

In the case of `O=C1CC2(CN(C(=O)NCc3ccc4[nH]c(C(F)(F)F)cc4c3)C2)Oc2cc(F)ccc21` [Example 61, 7′-fluoro-4′-oxo-N-{[2-(trifluoromethyl)-1H-indol-5-yl]methyl}-3′,4′-dihydrospiro[azetidine-3,2′-[1]benzopyran]-1-carboxamide], the “reversal of the scopolamine-induced amnesia in the place recognition assay (exploration time novel vs. familiar arm, significance)” value (Male NMRI mice; 3 mg/kg i.p.) is reported as “++ (^++p < 0.01)” and the “reversal of the scopolamine-induced amnesia in the place recognition assay (exploration time novel vs. familiar arm, significance)” value (Male NMRI mice; 10 mg/kg i.p.) is reported as “+++ (^+++p < 0.001)”.

Work on `Cn1cc(Cl)c2cc(CNC(=O)N3CC4(CC(=O)c5cc(F)ccc5O4)C3)cnc21` [Example 39] yielded an EC50 (human α7 nAchR) of 730 nM.

With `Cn1ccc2cc(CNC(=O)N3CCC4(CC(=O)c5cc(Cl)ccc5O4)C3)ccc21` (racemic) [Example 5] the EC50 (human α7 nAchR) was 210 nM.

For `Cn1ccc2cc(CNC(=O)N3CC4(CC(=O)c5ccc(C(F)(F)F)cc5O4)C3)cnc21` [Example 59], the EC50 (human α7 nAchR) was 500 nM.

In the case of `Cc1cc2cc(CNC(=O)N3CC4(CC(=O)c5cc(F)ccc5O4)C3)ccc2[nH]1` [Example 1, 6′-Fluoro-N-[(2-methyl-1H-indol-5-yl)methyl]-4′-oxo-3′,4′-dihydrospiro[azetidine-3,2′-[1]benzopyran]-1-carboxamide], the EC50 (human α7 nAchR) is reported as 120 nM and the “reversal of the scopolamine-induced amnesia in the place recognition assay (exploration time novel vs. familiar arm, significance)” value (Male NMRI mice; 1 mg/kg i.p.) is reported as “++ (^++p < 0.01)”.

In the case of `Cn1ccc2cc(CNC(=O)N3CC4(CC(=O)c5ccc(C(F)(F)F)cc5O4)C3)ccc21` [Example 52, N-[(1-methyl-1H-indol-5-yl)methyl]-4′-oxo-7′-(trifluoromethyl)-3′,4′-dihydrospiro[azetidine-3,2′-[1]benzopyran]-1-carboxamide], the EC50 (human α7 nAchR) is reported as 130 nM and the “reversal of the scopolamine-induced amnesia in the place recognition assay (exploration time novel vs. familiar arm, significance)” value (Male NMRI mice; 10 mg/kg i.p.) is reported as “+ (^+p < 0.05)”.

`COc1ccc2c(c1)OC1(CCN(C(=O)NCc3ccc4c(ccn4C)c3)CC1)CC2=O` [Example 21] was tested, and the EC50 (human α7 nAchR) was 280 nM.

For `O=C1CC2(CN(C(=O)NCc3ccc4[nH]ccc4c3)C2)Oc2ccc(Cl)cc21` [Example 26, 6′-chloro-N-[(1H-indol-5-yl)methyl]-4′-oxo-3′,4′-dihydrospiro[azetidine-3,2′-[1]benzopyran]-1-carboxamide], the EC50 (human α7 nAchR) was 390 nM and the “reversal of the scopolamine-induced amnesia in the place recognition assay (exploration time novel vs. familiar arm, significance)” value (Male NMRI mice; 3 mg/kg i.p.) was “+ (^+p < 0.05)”.
